Experiment [1] has as its target Tyrosine-protein kinase BTK (Homo sapiens, UniProt Q06187). It is filed as functional.
Experiment [2] has as its target Tyrosine-protein kinase JAK3 (Homo sapiens, UniProt P52333). It is filed as functional.
A further experiment concerns the target T1, Protein RecA (Mycobacterium tuberculosis, UniProt P9WHJ3).
T1 sequence (P9WHJ3 whole entry): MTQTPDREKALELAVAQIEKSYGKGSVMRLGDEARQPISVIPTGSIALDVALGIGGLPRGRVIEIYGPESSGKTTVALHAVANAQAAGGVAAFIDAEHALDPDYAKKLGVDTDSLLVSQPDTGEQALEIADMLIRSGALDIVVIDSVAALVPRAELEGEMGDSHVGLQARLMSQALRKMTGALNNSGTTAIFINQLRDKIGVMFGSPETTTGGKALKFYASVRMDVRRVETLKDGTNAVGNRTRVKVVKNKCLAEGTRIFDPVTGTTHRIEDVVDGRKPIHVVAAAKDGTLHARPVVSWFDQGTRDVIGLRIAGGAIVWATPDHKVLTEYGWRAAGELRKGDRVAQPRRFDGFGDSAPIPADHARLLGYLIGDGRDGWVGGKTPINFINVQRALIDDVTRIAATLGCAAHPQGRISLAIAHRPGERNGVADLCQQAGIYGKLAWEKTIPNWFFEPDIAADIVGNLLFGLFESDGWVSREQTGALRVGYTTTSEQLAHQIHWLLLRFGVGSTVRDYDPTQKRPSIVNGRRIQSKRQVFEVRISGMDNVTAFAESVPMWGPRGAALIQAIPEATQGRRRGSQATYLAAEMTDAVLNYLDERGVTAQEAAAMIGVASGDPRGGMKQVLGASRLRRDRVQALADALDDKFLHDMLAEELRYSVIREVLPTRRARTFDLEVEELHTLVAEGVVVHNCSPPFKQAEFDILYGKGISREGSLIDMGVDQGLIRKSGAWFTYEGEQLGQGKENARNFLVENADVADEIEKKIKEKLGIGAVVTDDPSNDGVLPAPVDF
As to the kind of experiment: Fluorescence Cell-Free Homogeneous Dose Retest to Identify Inhibitors of RecA-Intein Splicing Activity. [Related pubchem assays (depositor defined):AID2097, AID2223, AID489010, AID492950]. Type of experiment: functional.

Experiment [3] deals with T2, Histone-lysine N-methyltransferase NSD2 (Homo sapiens, UniProt O96028).
T2 sequence (O96028 whole entry): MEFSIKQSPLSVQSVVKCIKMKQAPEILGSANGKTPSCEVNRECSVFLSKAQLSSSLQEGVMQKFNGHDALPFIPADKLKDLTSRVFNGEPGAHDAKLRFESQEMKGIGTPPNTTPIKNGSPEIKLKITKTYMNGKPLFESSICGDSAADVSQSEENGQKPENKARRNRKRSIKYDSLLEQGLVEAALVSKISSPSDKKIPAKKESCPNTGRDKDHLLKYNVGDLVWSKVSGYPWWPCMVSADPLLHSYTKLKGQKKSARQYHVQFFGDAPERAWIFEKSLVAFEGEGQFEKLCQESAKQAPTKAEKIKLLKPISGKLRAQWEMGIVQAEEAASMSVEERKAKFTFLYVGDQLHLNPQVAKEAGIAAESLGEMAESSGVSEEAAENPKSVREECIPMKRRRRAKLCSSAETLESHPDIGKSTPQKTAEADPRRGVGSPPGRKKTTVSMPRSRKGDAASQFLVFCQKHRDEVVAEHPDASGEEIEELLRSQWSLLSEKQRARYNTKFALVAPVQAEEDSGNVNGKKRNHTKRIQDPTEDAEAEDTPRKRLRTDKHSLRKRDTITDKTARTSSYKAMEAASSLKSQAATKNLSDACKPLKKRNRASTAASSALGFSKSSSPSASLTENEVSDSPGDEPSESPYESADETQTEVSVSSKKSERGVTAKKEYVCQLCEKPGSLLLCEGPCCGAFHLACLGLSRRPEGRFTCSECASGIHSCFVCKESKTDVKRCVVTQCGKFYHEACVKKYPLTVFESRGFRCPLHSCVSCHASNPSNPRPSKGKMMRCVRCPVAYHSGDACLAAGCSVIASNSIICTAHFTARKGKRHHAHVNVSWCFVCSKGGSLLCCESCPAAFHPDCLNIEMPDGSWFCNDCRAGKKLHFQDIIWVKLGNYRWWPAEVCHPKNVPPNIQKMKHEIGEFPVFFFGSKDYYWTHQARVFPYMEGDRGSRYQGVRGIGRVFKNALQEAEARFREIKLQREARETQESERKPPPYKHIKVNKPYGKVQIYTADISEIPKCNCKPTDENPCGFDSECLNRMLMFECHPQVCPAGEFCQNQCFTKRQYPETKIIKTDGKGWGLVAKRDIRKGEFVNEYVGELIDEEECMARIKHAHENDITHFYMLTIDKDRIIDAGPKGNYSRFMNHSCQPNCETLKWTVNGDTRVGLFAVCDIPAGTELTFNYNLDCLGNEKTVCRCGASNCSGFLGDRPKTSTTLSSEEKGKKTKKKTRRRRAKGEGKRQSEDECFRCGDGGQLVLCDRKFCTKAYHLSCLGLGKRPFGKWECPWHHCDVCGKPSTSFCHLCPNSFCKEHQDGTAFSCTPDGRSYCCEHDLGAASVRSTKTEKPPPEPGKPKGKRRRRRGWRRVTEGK
Type of experiment: biochemical.

Calls of active or inactive are those of the source.

This is an account of results in ChEMBL document CHEMBL1201862, “PubChem BioAssay data set” (2004).

Chain of Tyrosine-protein kinase JAK3 (P52333 whole entry): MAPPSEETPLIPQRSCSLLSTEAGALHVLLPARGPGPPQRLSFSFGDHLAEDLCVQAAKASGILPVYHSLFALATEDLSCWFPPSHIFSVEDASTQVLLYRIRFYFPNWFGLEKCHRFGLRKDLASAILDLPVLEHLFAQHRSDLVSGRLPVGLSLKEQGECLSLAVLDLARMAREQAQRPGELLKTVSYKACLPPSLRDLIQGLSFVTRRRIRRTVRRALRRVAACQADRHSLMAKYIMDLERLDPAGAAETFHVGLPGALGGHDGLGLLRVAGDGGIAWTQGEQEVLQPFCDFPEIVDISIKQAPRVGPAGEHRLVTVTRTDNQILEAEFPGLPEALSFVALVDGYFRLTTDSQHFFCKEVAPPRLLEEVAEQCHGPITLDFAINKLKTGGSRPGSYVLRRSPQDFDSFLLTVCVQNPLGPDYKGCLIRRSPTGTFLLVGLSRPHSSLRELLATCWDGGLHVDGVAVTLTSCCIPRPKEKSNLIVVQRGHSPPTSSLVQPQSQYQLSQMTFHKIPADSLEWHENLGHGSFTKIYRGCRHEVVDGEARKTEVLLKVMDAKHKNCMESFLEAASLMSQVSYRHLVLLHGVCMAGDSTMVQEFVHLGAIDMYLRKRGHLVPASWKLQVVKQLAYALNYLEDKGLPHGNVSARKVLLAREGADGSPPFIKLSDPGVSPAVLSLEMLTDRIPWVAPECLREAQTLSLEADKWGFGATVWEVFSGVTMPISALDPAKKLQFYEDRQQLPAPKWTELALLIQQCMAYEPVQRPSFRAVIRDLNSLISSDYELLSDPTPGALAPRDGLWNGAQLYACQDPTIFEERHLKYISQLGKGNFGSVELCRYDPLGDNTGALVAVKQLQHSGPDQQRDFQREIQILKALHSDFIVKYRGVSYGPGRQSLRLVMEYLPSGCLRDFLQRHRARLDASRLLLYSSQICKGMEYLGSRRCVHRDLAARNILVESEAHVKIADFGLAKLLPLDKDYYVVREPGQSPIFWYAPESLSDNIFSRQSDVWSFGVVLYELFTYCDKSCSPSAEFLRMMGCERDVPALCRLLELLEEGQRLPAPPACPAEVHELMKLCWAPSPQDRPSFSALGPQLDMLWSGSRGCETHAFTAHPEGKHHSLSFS
Chain of Tyrosine-protein kinase BTK (Q06187 whole entry): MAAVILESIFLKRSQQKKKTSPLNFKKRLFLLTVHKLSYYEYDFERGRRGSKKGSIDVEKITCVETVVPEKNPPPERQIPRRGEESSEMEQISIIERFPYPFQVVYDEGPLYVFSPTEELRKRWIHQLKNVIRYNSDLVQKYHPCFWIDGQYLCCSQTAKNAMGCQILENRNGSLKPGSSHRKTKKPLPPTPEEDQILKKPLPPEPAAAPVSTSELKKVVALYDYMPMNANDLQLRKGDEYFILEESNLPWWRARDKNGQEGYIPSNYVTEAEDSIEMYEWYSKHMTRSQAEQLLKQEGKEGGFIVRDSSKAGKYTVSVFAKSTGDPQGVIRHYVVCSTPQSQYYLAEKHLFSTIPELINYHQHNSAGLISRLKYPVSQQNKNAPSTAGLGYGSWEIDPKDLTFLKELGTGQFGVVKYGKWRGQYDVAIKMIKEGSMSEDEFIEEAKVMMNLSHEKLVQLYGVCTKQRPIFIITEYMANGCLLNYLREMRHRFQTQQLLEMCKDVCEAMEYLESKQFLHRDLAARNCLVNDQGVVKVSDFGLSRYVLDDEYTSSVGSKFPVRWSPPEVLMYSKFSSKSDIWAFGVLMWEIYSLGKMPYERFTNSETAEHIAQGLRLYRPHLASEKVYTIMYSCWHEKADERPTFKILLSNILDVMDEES

Regarding `O=C1Nc2cc(-c3ccc(O)cc3)ccc2C1=Cc1ccc[nH]1`, the Ki in experiment [1] was > 6.31 µM (inactive); in experiment [2] it was 0.02 µM (active).
With `Oc1nc(Nc2ccc(F)cc2)cc2ccccc12`, the EC50 on Protein RecA was 1.21 µM (active).
In the case of `NC(COc1cncc(-c2ccc3c(c2)C(=Cc2ccc[nH]2)C(=O)N3)c1)Cc1ccccc1` (stereo not drawn), the Ki in experiment [1] was 3.98 µM (active); in experiment [2], 0.02 µM (active).
For the compound `CCN(CC)CCOc1ccc2c(c1)C(=NNC(=O)c1ccccn1)c1cc(OCCN(CC)CC)ccc1-2`, the concentration at half-maximal activity (AC50) in experiment [3] was 10.3 µM (active).
For the compound `O=C(NC1=C(Nc2ccc(F)cc2)C(=O)c2ccccc2C1=O)c1ccc(Cl)cc1`, at Protein RecA, the EC50 was 25.9 µM (inconclusive).
Consider `CN(C)c1cc(N/N=C\c2ccccc2)nc(N(C)C)n1`, for which, in experiment [3], the AC50 was 4.93 µM (active).

As usually defined, the Ki is the equilibrium dissociation constant of an inhibitor or competing ligand from its target. By EC50 is commonly meant the concentration needed to bring the measured effect to its halfway point. For orientation: AC50 means the concentration at which the activity in the assay is half-maximal.
